Source: PubChem BioAssay AID330 (DTP/NCI, 2004)
“And” between values parts separate entries of the source, which are not always exact repeats. Equal entries are not always repeated. Toxic doses and inconclusive results are not listed.

System: P388 leukemia ip, CD2F1 mice, survival T/C
Test: NCI In Vivo Anticancer Drug Screen. Data for tumor model P388 Leukemia (intraperitoneal) in CD2F1 (CDF1) mice
Conditions: endpoint: median survival time, higher = longer survival
Summary of the method: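 Mice carrying the transplanted tumor received test compound or vehicle. Survival was recorded in each group, and the value is the treated-group measurement divided by that of the vehicle-treated control group.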

[1] = dose: 50.0 mg/kg/injection, schedule: Q01DX009 (ip), vehicle: Klucel (hydroxypropylcellulose) (HPC)
[2] = dose: 100.0 mg/kg/injection, schedule: Q01DX009 (ip), vehicle: Klucel (hydroxypropylcellulose) (HPC)
[3] = dose: 200.0 mg/kg/injection, schedule: Q01DX009 (ip), vehicle: Klucel (hydroxypropylcellulose) (HPC)
[4] = dose: 50.0 mg/kg/injection, schedule: Q01DX005 (ip), vehicle: Klucel (hydroxypropylcellulose) (HPC)
[5] = dose: 100.0 mg/kg/injection, schedule: Q01DX005 (ip), vehicle: Klucel (hydroxypropylcellulose) (HPC)
[6] = dose: 50.0 mg/kg/injection, schedule: Q01DX009 (ip), vehicle: saline with Tween-80
[7] = dose: 100.0 mg/kg/injection, schedule: Q01DX009 (ip), vehicle: saline with Tween-80
[8] = dose: 200.0 mg/kg/injection, schedule: Q01DX009 (ip), vehicle: saline with Tween-80
[9] = dose: 50.0 mg/kg/injection, schedule: Q01DX009 (ip), vehicle: saline
[10] = dose: 25.0 mg/kg/injection, schedule: Q01DX009 (ip), vehicle: saline with Tween-80
[11] = dose: 100.0 mg/kg/injection, schedule: Q04DX003 (ip), vehicle: saline
[12] = dose: 200.0 mg/kg/injection, schedule: Q04DX003 (ip), vehicle: saline
[13] = dose: 400.0 mg/kg/injection, schedule: Q04DX003 (ip), vehicle: saline
[14] = dose: 6.25 mg/kg/injection, schedule: Q01DX009 (ip), vehicle: saline with Tween-80
[15] = dose: 12.5 mg/kg/injection, schedule: Q01DX009 (ip), vehicle: saline with Tween-80
[16] = dose: 25.0 mg/kg/injection, schedule: Q01DX010 (ip), vehicle: saline
[17] = dose: 50.0 mg/kg/injection, schedule: Q01DX010 (ip), vehicle: saline
[18] = dose: 25.0 mg/kg/injection, schedule: Q01DX005 (ip), vehicle: saline

O=C1c2ccccc2-c2n[nH]c3cccc1c23
T/C [1]: 101 % of control | T/C [2]: 102 % of control | T/C [3]: 96 % of control | T/C (dose: 400.0 mg/kg/injection, schedule: Q01DX009 (ip), vehicle: Klucel (hydroxypropylcellulose) (HPC)): 95 % of control

O=C1C(=Nc2ccccc2)Cc2ccccc21
T/C (dose: 100.0 mg/kg/injection, schedule: Q04DX003 (ip), vehicle: saline with Tween-80): 100 % of control | T/C (dose: 200.0 mg/kg/injection, schedule: Q04DX003 (ip), vehicle: saline with Tween-80): 96 % of control | T/C (dose: 400.0 mg/kg/injection, schedule: Q04DX003 (ip), vehicle: saline with Tween-80): 100 % of control

CN1CCC2(C)CC(Br)(Cc3ccccc32)C1Cl (stereo unspecified)
T/C [4]: 108 % of control | T/C [5]: 106 % of control

C=CCNC(=S)N/N=C(\CCC)c1ccccn1
T/C (dose: 50.0 mg/kg/injection, schedule: Q01DX005 (ip), vehicle: saline with Tween-80): 114 % of control | T/C (dose: 100.0 mg/kg/injection, schedule: Q01DX005 (ip), vehicle: saline with Tween-80): 121 % of control

CCOc1ccc(/C=C/c2ccc3ccccc3[n+]2C)cc1OCC
T/C (dose: 0.78 mg/kg/injection, schedule: Q01DX009 (ip), vehicle: saline with Tween-80): 102 % of control | T/C (dose: 1.56 mg/kg/injection, schedule: Q01DX009 (ip), vehicle: saline with Tween-80): 111 % of control

Cc1ccc(NC(=O)N2c3ccccc3SC23CCCCC3)c(C)c1
T/C [6]: 102 % of control | T/C [7]: 105 % of control | T/C [8]: 103 % of control

COc1ccc(/C=C/C(=O)CCC(=O)O)cc1OC
T/C [1]: 100 % of control and 109 % of control | T/C [9]: 114 % of control | T/C [2]: 108 % of control and 109 % of control | T/C [3]: 106 % of control and 110 % of control

COC(=O)CCSC(=O)Nc1cccc(C(F)(F)F)c1
T/C [4]: 97 % of control | T/C [5]: 98 % of control | T/C (dose: 200.0 mg/kg/injection, schedule: Q01DX005 (ip), vehicle: Klucel (hydroxypropylcellulose) (HPC)): 104 % of control

CCCCOC1OCN(C(C)(C)C)CC1(C)C (stereo unspecified)
T/C [10]: 101 % of control | T/C [6]: 100 % of control | T/C [7]: 113 % of control | T/C [8]: 111 % of control

CC1(C(N)=O)CO1 (stereo unspecified)
T/C [11]: 103 % of control | T/C [12]: 100 % of control | T/C [13]: 100 % of control

Cc1csc(C)[n+]1C
T/C (dose: 25.0 mg/kg/injection, schedule: Q01DX009 (ip), vehicle: saline sonified): 100 % of control | T/C (dose: 50.0 mg/kg/injection, schedule: Q01DX009 (ip), vehicle: saline sonified): 100 % of control | T/C (dose: 100.0 mg/kg/injection, schedule: Q01DX009 (ip), vehicle: saline sonified): 90 % of control

CC(C)(OCc1ccccc1)c1ccccc1[P+](C)(c1ccccc1)c1ccccc1
T/C (dose: 100.0 mg/kg/injection, schedule: Q01DX001 (ip), vehicle: Klucel (hydroxypropylcellulose) (HPC)): 109 % of control | T/C (dose: 200.0 mg/kg/injection, schedule: Q01DX001 (ip), vehicle: Klucel (hydroxypropylcellulose) (HPC)): 113 % of control

COc1ccc(Cc2nncc3ccccc23)cc1OC
T/C [14]: 107 % of control | T/C [15]: 107 % of control | T/C [10]: 105 % of control | T/C [7]: 95 % of control | T/C [8]: 104 % of control

C1N2CN3CN1CP(C2)C3
T/C [9]: 112 % of control | T/C (dose: 100.0 mg/kg/injection, schedule: Q01DX009 (ip), vehicle: saline): 115 % of control | T/C (dose: 200.0 mg/kg/injection, schedule: Q01DX009 (ip), vehicle: saline): 106 % of control

CCC(c1ccc(OCCS(=O)(=O)Oc2ccccc2)cc1)C(CC)c1ccc(OCCS(=O)(=O)Oc2ccccc2)cc1 (stereo unspecified)
T/C (dose: 100.0 mg/kg/injection, schedule: Q04DX003 (ip), vehicle: suspension in saline): 99 % of control | T/C (dose: 200.0 mg/kg/injection, schedule: Q04DX003 (ip), vehicle: suspension in saline): 98 % of control | T/C (dose: 400.0 mg/kg/injection, schedule: Q04DX003 (ip), vehicle: suspension in saline): 98 % of control

COC(=O)c1ccc(N2C(=O)C=CC2=O)cc1
T/C (dose: 0.75 mg/kg/injection, schedule: Q01DX009 (ip), vehicle: saline with Tween-80): 100 % of control | T/C (dose: 1.5 mg/kg/injection, schedule: Q01DX009 (ip), vehicle: saline with Tween-80): 100 % of control | T/C (dose: 3.0 mg/kg/injection, schedule: Q01DX009 (ip), vehicle: saline with Tween-80): 120 % of control

COC(=O)c1c(C)ccc2c(O)c3c(cc12)C(=O)c1c2c(cc(O)c1C3=O)C1(C)OC(C)(O2)C(O)C(N(C)C)C1O (stereo unspecified)
T/C [16]: 100 % of control | T/C [17]: 100 % of control | T/C (dose: 100.0 mg/kg/injection, schedule: Q01DX010 (ip), vehicle: saline): 100 % of control | T/C (dose: 200.0 mg/kg/injection, schedule: Q01DX010 (ip), vehicle: saline): 100 % of control | T/C (dose: 400.0 mg/kg/injection, schedule: Q01DX010 (ip), vehicle: saline): 100 % of control

Cn1c([N+](=O)[O-])cnc1-c1nc(/C=N/N2CCS(=O)(=O)CC2)cs1
T/C [10]: 96 % of control | T/C [6]: 96 % of control | T/C [7]: 90 % of control

O=C(N/N=C/c1ccc(O)c(S(=O)(=O)O)c1)C(=O)N/N=C/c1ccc(O)c(S(=O)(=O)O)c1
T/C [1]: 101 % of control | T/C [2]: 108 % of control | T/C [3]: 108 % of control

CCN(CC)CCCNC(=O)c1noc2cc([N+](=O)[O-])ccc12
T/C (dose: 12.5 mg/kg/injection, schedule: Q01DX005 (ip), vehicle: saline): 113 % of control | T/C [18]: 105 % of control | T/C (dose: 50.0 mg/kg/injection, schedule: Q01DX005 (ip), vehicle: saline): 99 % of control

Cc1nccc2nnc(C)n12
T/C [11]: 98 % of control | T/C [12]: 98 % of control | T/C [13]: 95 % of control

O=[N+]([O-])c1ccc2c(c1)Cc1cc(N(CCCl)CCCl)ccc1-2
T/C [1]: 94 % of control | T/C [2]: 92 % of control | T/C [3]: 94 % of control

O=[N+]([O-])O.[Ga]
T/C (dose: 6.25 mg/kg/injection, schedule: Q01DX005 (ip), vehicle: saline): 100 % of control | T/C (dose: 6.25 mg/kg/injection, schedule: Q01DX010 (ip), vehicle: saline): 100 % of control | T/C (dose: 12.5 mg/kg/injection, schedule: Q01DX005 (iv), vehicle: saline): 99 % of control | T/C (dose: 12.5 mg/kg/injection, schedule: Q01DX010 (ip), vehicle: saline): 100 % of control | T/C [18]: 100 % of control and 123 % of control | T/C (dose: 25.0 mg/kg/injection, schedule: Q01DX005 (iv), vehicle: saline): 96 % of control | T/C [16]: 118 % of control | T/C (dose: 50.0 mg/kg/injection, schedule: Q01DX005 (iv), vehicle: saline): 98 % of control and 91 % of control | T/C [17]: 100 % of control

CC(=O)Nc1cc(C(=O)O)cc(C(=O)O)c1
T/C [6]: 109 % of control | T/C [7]: 105 % of control | T/C [8]: 92 % of control

Nc1nc(N)c2cc(S(=O)(=O)c3ccc(Cl)cc3)ccc2n1
T/C [6]: 100 % of control | T/C [7]: 98 % of control | T/C [8]: 97 % of control

O=NN(CCCl)C(=O)NCCSSCCNC(=O)N(CCCl)N=O (tested in a mixture with another compound)
T/C (dose: 12.5 mg/kg/injection, schedule: Q01DX005 (ip), vehicle: Klucel (hydroxypropylcellulose) (HPC)): 179 % of control and 211 % of control | T/C (dose: 25.0 mg/kg/injection, schedule: Q01DX005 (ip), vehicle: Klucel (hydroxypropylcellulose) (HPC)): 224 % of control | T/C [4]: 120 % of control and 201 % of control

COCCCn1c(C(Cl)(Cl)Cl)nn2c(=O)c3ccccc3nc2c1=O
T/C [14]: 96 % of control | T/C [15]: 91 % of control | T/C [10]: 100 % of control

CCC(CC)C1NC(C(=O)O)CS1 (stereo unspecified)
T/C (dose: 50.0 mg/kg/injection, schedule: Q01DX009 (ip), vehicle: suspension in saline): 93 % of control | T/C (dose: 100.0 mg/kg/injection, schedule: Q01DX009 (ip), vehicle: suspension in saline): 96 % of control | T/C (dose: 200.0 mg/kg/injection, schedule: Q01DX009 (ip), vehicle: suspension in saline): 92 % of control

COC1(OC)C(c2cccs2)C(C#N)(C#N)C1(OC)OC (stereo unspecified)
T/C (dose: 60.0 mg/kg/injection, schedule: Q01DX005 (ip), vehicle: Klucel (hydroxypropylcellulose) (HPC)): 100 % of control | T/C (dose: 120.0 mg/kg/injection, schedule: Q01DX005 (ip), vehicle: Klucel (hydroxypropylcellulose) (HPC)): 105 % of control | T/C (dose: 240.0 mg/kg/injection, schedule: Q01DX005 (ip), vehicle: Klucel (hydroxypropylcellulose) (HPC)): 100 % of control
